Laboratory results reported in patent publication US9834542B2, “LXR modulators” (BRISTOL-MYERS SQUIBB COMPANY, priority 2013, dated 2017).
pEC50: −log10 of the molar value.

Target: T1, LXRβ (Homo sapiens, UniProt P55055)
T1 construct: Co-transfection expression plasmids, comprising full-length LXRα (pCMX-h LXRα[…] or LXRβ (pCMX-hLXRβ)); expressed in transfected cells; host or cells: CV-1 African Green Monkey Kidney Cells
T1 sequence (P55055 1-460): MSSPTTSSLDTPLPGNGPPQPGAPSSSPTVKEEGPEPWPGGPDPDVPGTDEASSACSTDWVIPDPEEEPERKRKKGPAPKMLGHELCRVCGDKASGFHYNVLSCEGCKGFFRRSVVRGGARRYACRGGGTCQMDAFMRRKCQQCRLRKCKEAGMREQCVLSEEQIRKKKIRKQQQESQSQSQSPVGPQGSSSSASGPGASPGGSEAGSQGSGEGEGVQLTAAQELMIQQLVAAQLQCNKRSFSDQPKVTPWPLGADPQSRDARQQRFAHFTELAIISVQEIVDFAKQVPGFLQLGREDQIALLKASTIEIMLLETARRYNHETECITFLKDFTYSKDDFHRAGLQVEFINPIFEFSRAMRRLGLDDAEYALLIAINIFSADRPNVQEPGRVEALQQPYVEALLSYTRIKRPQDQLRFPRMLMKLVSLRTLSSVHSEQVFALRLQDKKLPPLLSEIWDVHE
T1 sequence (P19793 1-462 partner): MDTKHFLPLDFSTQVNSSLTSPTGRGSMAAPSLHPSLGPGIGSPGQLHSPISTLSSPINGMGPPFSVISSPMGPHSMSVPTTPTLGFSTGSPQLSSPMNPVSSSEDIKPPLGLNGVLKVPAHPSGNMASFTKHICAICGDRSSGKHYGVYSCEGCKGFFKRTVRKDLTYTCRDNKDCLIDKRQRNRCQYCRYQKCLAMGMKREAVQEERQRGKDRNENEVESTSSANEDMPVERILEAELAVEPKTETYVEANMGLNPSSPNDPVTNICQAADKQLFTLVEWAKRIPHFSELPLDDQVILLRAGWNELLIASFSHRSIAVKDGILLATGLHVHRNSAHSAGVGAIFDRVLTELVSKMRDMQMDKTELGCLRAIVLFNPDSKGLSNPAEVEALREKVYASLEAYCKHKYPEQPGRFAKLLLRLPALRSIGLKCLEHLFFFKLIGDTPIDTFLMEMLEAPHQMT
Experiment: Co-transfection assay (LXRE luciferase reporter), LXRβ
Format: cell-based
Settings: for pEC50: CV-1 cells transfected with pCMX-hLXRβ and LXREx1-Tk-Luciferase, 20 hours incubation; for Emax: LXRβ co-transfection, relative to high control 1-(2,4-difluorobenzyl)-2-oxo-6-(4-phenoxyphenyl)-4-(trifluoromethyl)-1,2-dihydropyridine-3-carbonitrile, read-out: % Efficacy
How it was run: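 Luciferase signal from an LXREx1-Tk reporter was measured after transfected CV-1 cells (full-length hLXRβ, endogenous RXR) were treated with compounds for 20 h at 37 °C, ≤0.5% DMSO. EC50 came from four-parameter fits of 11-point ½-log curves; % efficacy versus a reference agonist maximum.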

SMILES	pEC50	Emax [%]
Cc1nc(Cl)cn1-c1ccc(-c2cc(F)c(CO)c(S(C)(=O)=O)c2)cc1-n1nncc1-c1ccc(Cl)cc1 [Example 148, [4′-(4-chloro-2-methyl-1H-imidazol-1-yl)-3′-[5-(4-chlorophenyl)-1H-1,2,3-triazol-1-yl]-3-fluoro-5-(methylsulfonyl)biphenyl-4-yl]methanol]	6.35	42
Cc1nc(C(F)(F)F)cn1-c1ccc(-c2cccc(S(C)(=O)=O)c2)cc1-c1oc(CCO)nc1-c1ccc(OC(F)(F)F)cc1 [Example 611, 2-(5-(4-(2-methyl-4-(trifluoromethyl)-1H-imidazol-1-yl)-3′-(methylsulfonyl)-[1,1′-biphenyl]-3-yl)-4-(4-(trifluoromethoxy)phenyl)oxazol-2-yl)ethanol]	6.26	62
Cc1nc(-c2cc(-c3cc(F)c(CO)c(S(C)(=O)=O)c3)ccc2-n2cc(C(F)(F)F)nc2C)c(-c2ccc(N3CCCC3=O)cc2)o1 [Example 501]	5.79	38
CCC(F)(F)c1cn(-c2ccc(-c3cccc(S(C)(=O)=O)c3)cc2-c2ocnc2-c2ccc(OC(F)(F)F)cc2)c(C)n1 [Example 364, 5-{4-[4-(1,1-difluoropropyl)-2-methyl-1H-imidazol-1-yl]-3′-(methylsulfonyl)biphenyl-3-yl}-4-{4-[(trifluoromethyl)oxy]phenyl}-1,3-oxazole]	6.39	55
Cc1nc(C(F)(F)F)cn1-c1ccc(-c2cccc(C(C)(C)C(N)=O)c2)cc1-n1nncc1C(=O)c1ccc(Cl)cc1 [Example 139, 2-(3′-{5-[(4-chlorophenyl)carbonyl]-1H-1,2,3-triazol-1-yl}-4′-[2-methyl-4-(trifluoromethyl)-1H-imidazol-1-yl]biphenyl-3-yl)-2-methylpropanamide]	5.83	71
Cc1nc(C(=O)C(C)C)cn1-c1ccc(-c2cccc(S(C)(=O)=O)c2)cc1-n1nncc1-c1ccc(OC(F)(F)F)cc1 [Example 234, 2-methyl-1-(2-methyl-1-(3′-(methylsulfonyl)-3-(5-(4-(trifluoromethoxy)phenyl)-1H-1,2,3-triazol-1-yl)-[1,1′-biphenyl]-4-yl)-1H-imidazol-4-yl)propan-1-one]	5.92	75
CS(=O)(=O)c1cccc(-c2ccc(-n3cc(C(F)(F)F)nc3C(F)F)c(-n3nncc3-c3ccc(Cl)cc3)c2)c1 [Example 225, 5-(4-chlorophenyl)-1-(4-(2-(difluoromethyl)-4-(trifluoromethyl)-1H-imidazol-1-yl)-3′-(methylsulfonyl)-[1,1′-biphenyl]-3-yl)-1H-1,2,3-triazole]	5.96	91
Cc1ncc(-c2oc(C)nc2-c2cc(-c3cc(F)c(CO)c(S(C)(=O)=O)c3)ccc2-n2cc(C(F)(F)F)nc2C)cn1 [Example 428, (3-fluoro-4′-(2-methyl-4-(trifluoromethyl)-1H-imidazol-1-yl)-3′-(2-methyl-5-(2-methylpyrimidin-5-yl)oxazol-4-yl)-5-(methylsulfonyl)biphenyl-4-yl)methanol]	5.51	50
Cc1nc(C(F)(F)F)cn1-c1ccc(-c2cccc(S(C)(=O)=O)c2)cc1-n1nncc1-c1ccc(SC(F)(F)F)cc1 [Example 32, 1-{3′-(methylsulfonyl)-4-[2-methyl-4-(trifluoromethyl)-1H-imidazol-1-yl]biphenyl-3-yl}-5-{4-[(trifluoromethyl)thio]phenyl}-1H-1,2,3-triazole]	6.20	84

Stronger by pEC50, values ahead:

pEC50	Emax [%]	SMILES
6.69	59	Cc1nc(C(F)(F)C(C)C)cn1-c1ccc(-c2cccc(S(C)(=O)=O)c2)cc1-n1nncc1-c1ccc(OC(F)(F)F)cc1 [Example 164, 1-{4-[4-(1,1-difluoro-2-methylpropyl)-2-methyl-1H-imidazol-1-yl]-3′-(methylsulfonyl)biphenyl-3-yl}-5-{4-[(trifluoromethyl)oxy]phenyl}-1H-1,2,3-triazole]
6.77	93	Cc1nc(C(F)(F)F)cn1-c1ccc(-c2cccc(S(C)(=O)=O)c2)cc1-c1ocnc1-c1ccc(Cl)cc1 [Example 360, 4-(4-chlorophenyl)-5-{3′-(methylsulfonyl)-4-[2-methyl-4-(trifluoromethyl)-1H-imidazol-1-yl]biphenyl-3-yl}-1,3-oxazole]
6.84	47	CCC(F)(F)c1cn(-c2ccc(-c3cccc(S(C)(=O)=O)c3)cc2-c2nc(C)oc2-c2ccc(OC(F)(F)F)cc2)c(C)n1 [Example 517, 4-(4-(4-(1,1-difluoropropyl)-2-methyl-1H-imidazol-1-yl)-3′-(methylsulfonyl)-[1,1′-biphenyl]-3-yl)-2-methyl-5-(4-(trifluoromethoxy)phenyl)oxazole]
7.04	87	Cc1nc(C(F)(F)F)cn1-c1c(F)cc(-c2cc(F)c(CO)c(S(C)(=O)=O)c2)cc1-n1nncc1-c1ccc(Cl)cc1 [Example 198, {3′-[5-(4-chlorophenyl)-1H-1,2,3-triazol-1-yl]-3,5′-difluoro-5-(methylsulfonyl)-4′-[2-methyl-4-(trifluoromethyl)-1H-imidazol-1-yl]biphenyl-4-yl}methanol]
6.55	68	Cc1ccc(-c2cnnn2-c2cc(-c3cc(Cl)c(CO)c(S(C)(=O)=O)c3)ccc2-n2cc(C(F)(F)F)nc2C)cc1 [Example 63, {3-chloro-3′-[5-(4-methylphenyl)-1H-1,2,3-triazol-1-yl]-5-(methyllsulfonyl)-4′-[2-methyl-4-(trifluoromethyl)-1H-imidazol-1-yl]biphenyl-4-yl}methanol]
7.40	71	Cc1nc(C(F)(F)F)cn1-c1ccc(-c2cccc(S(C)(=O)=O)c2)cc1-c1nc(C2CC2)oc1-c1ccc2c(c1)OC(F)(F)O2 [Example 482, 2-cyclopropyl-5-(2,2-difluorobenzo[d][1,3]dioxol-5-yl)-4-(4-(2-methyl-4-(trifluoromethyl)-1H-imidazol-1-yl)-3′-(methylsulfonyl)biphenyl-3-yl)oxazole]
6.94	79	Cc1nc(-c2cc(-c3cccc(S(C)(=O)=O)c3)ccc2-n2cc(C(F)(F)F)nc2C)c(-c2ccc(F)c(F)c2)o1 [Example 511, 5-(3,4-difluorophenyl)-2-methyl-4-(4-(2-methyl-4-(trifluoromethyl)-1H-imidazol-1-yl)-3′-(methylsulfonyl)biphenyl-3-yl)oxazole]
6.94	97	Cc1nc(C(F)(F)F)cn1-c1ccc(-c2cccc(S(C)(=O)=O)c2)cc1-c1ccnn1-c1ccc2c(c1)OC(F)(F)O2 [Example 293, 1-(2,2-difluorobenzo[d][1,3]dioxol-5-yl)-5-(4-(2-methyl-4-(trifluoromethyl)-1H-imidazol-1-yl)-3′-(methylsulfonyl)biphenyl-3-yl)-1H-pyrazole]
7.27	101	Cc1nc(-c2cc(-c3cc(F)c(CCO)c(S(C)(=O)=O)c3)ccc2-n2cc(C(F)(F)F)nc2C)c(-c2ccc(OC(F)(F)F)cc2)o1 [Example 529, 2-(3-fluoro-4′-(2-methyl-4-(trifluoromethyl)-1H-imidazol-1-yl)-3′-(2-methyl-5-(4-(trifluoromethoxy)phenyl)oxazol-4-yl)-5-(methylsulfonyl)-[1,1′-biphenyl]-4-yl)ethanol]
7.40	80	Cc1nc(C(F)(F)F)cn1-c1ccc(-c2ccc(CO)c(S(C)(=O)=O)c2)cc1-c1ccnn1-c1ccc2c(c1)OC(F)(F)O2 [Example 295, (3′-(1-(2,2-difluorobenzo[d][1,3]dioxol-5-yl)-1H-pyrazol-5-yl)-4′-(2-methyl-4-(trifluoromethyl)-1H-imidazol-1-yl)-3-(methylsulfonyl)biphenyl-4-yl)methanol]
6.64	94	Cc1nc(-c2cc(-c3cccc(S(C)(=O)=O)c3)ccc2-n2cc(C(F)(F)F)nc2C)c(-c2ccc(Cl)nc2Cl)o1 [Example 566, 5-(2,6-dichloropyridin-3-yl)-2-methyl-4-(4-(2-methyl-4-(trifluoromethyl)-1H-imidazol-1-yl)-3′-(methylsulfonyl)-[1,1′-biphenyl]-3-yl)oxazole]
